From paper PMC7044277 (Nature Communications, 2020)
pEC50: −log10 of the molar value. “And” between values parts separate entries of the source, which are not always exact repeats. Equal entries are not always repeated.

Tests used:
5HT4 = molecular target: T1, 5HT4 (Homo sapiens, UniProt Q13639); assay: β-arrestin2 recruitment (Tango); format: cell-based; settings: Fig_S10n; for β-arrestin2 recruitment response in presence of serotonin (replicate values): +10μM serotonin; for β-arrestin2 recruitment response (dose-response source data, replicate values): drug alone
T1 construct: expressed in transfected cells; host or cells: HTLA cells expressing TEV-fused β-arrestin2

[1] = system: serotonin receptor of Fig_S10h (subtype not given); assay: β-arrestin2 recruitment (Tango), agonist activity, source data Fig_S10h; format: cell-based, human; settings: drug alone
DRD2 (D2 long receptor) = DRD2 (D2 long receptor) (Homo sapiens, UniProt P14416); assay: β-arrestin2 recruitment (Tango), HTLA cells; format: cell-based; settings: for response, concentration-response data point (replicates): Fig_S10a, drug alone
Sequence of DRD2 (D2 long receptor) (P14416 whole entry): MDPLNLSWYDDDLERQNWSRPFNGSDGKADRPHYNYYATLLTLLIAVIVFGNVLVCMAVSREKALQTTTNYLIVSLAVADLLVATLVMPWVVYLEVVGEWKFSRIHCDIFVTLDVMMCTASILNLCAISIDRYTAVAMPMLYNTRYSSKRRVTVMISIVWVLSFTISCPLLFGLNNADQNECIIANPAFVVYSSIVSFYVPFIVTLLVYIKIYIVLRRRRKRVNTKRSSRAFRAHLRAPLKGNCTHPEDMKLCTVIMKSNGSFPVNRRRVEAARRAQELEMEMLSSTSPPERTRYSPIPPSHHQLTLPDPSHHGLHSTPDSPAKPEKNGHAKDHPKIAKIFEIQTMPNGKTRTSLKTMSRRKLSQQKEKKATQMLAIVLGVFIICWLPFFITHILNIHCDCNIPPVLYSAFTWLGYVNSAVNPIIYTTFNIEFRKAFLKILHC

T1 sequence (Q13639 whole entry, the tested form may be a part): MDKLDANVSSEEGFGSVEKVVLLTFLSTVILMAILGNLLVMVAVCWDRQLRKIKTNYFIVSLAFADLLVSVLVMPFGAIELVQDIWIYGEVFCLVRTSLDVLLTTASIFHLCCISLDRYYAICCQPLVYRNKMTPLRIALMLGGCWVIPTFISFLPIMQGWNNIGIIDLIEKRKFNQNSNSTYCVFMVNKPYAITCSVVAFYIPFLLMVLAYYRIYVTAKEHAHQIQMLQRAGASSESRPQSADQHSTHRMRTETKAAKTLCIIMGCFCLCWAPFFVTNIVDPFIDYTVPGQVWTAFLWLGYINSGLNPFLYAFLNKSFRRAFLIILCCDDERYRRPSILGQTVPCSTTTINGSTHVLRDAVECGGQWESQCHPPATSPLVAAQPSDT

How did the “β-arrestin2 recruitment response in presence of serotonin (replicate values)” value (5HT4; Log[Drug] -6.52) turn out when `CCOc1cccc2cc([C@H](C)NCC3(O)CCCCC3)oc12` [O4SE6] was run?
The value was 72.8962.

And the “β-arrestin2 recruitment response (dose-response source data, replicate values)” value (5HT4; Log[Drug] -6.52)?
Its value is 1.101.

What about the “β-arrestin2 recruitment response in presence of serotonin (replicate values)” value (5HT4; Log[Drug] -7) of the same compound?
The value was 68.214 and 69.7519 and 58.0435 and 78.1719 and 67.5552 and 58.9312 and 58.5479 and 62.6911 and 62.3338.

And the “β-arrestin2 recruitment response (dose-response source data, replicate values)” value (5HT4; Log[Drug] -7)?
The value was 0.5278 and 0.7799 and 0.9481 and 2.146 and 2.021 and 0.7677 and -0.1447 and -0.08084 and 0.1108.

What about the “β-arrestin2 recruitment response in presence of serotonin (replicate values)” value (5HT4; Log[Drug] -7.52) of the same compound?
The value was 78.4713 and 70.1922 and 60.1136 and 64.4542 and 62.425 and 65.749 and 65.0234 and 67.6362 and 68.0461.

What about the “β-arrestin2 recruitment response (dose-response source data, replicate values)” value (5HT4; Log[Drug] -7.52) of the same compound?
Its value is 1.098 and 0.2279 and 1.538 and 2.02 and 1.183 and 1.483 and -0.2732 and 0.4713 and 0.304.

And the “β-arrestin2 recruitment response in presence of serotonin (replicate values)” value (5HT4; Log[Drug] -8)?
Its value is 79.2214 and 70.638 and 63.1387 and 67.7854 and 68.476 and 59.8854 and 62.949 and 70.8028 and 62.3669.

And the “β-arrestin2 recruitment response (dose-response source data, replicate values)” value (5HT4; Log[Drug] -8)?
The value was 1.665 and 0.2788 and 1.143 and 1.476 and 0.7729 and 1.19 and -0.1116 and -0.1148 and 0.2053.

And the “β-arrestin2 recruitment response in presence of serotonin (replicate values)” value (5HT4; Log[Drug] -8.52)?
The value was 63.0325 and 66.617 and 68.5815 and 61.4979 and 62.8385 and 69.3531 and 69.1189 and 65.2821 and 54.9164.

What about the “β-arrestin2 recruitment response (dose-response source data, replicate values)” value (5HT4; Log[Drug] -8.52) of the same compound?
Its value is 2.264 and 0.3266 and 1.143 (2×) and 0.899 and 0.9417 and -0.211 and 0.2724 and 0.6928.

What about the “β-arrestin2 recruitment response in presence of serotonin (replicate values)” value (5HT4; Log[Drug] -9) of the same compound?
The value was 58.3354 and 69.9419 and 59.2835 and 65.9 and 67.9417 and 62.0583 and 73.9242 and 95.122 and 58.9489.

What about the “β-arrestin2 recruitment response (dose-response source data, replicate values)” value (5HT4; Log[Drug] -9) of the same compound?
Its value is 0.7979 and 0.203 and 1.266 and 0.9417 and 1.353 and 2.815 and 0.5659 and 0.7244 and 0.2029.

And the “β-arrestin2 recruitment response in presence of serotonin (replicate values)” value (5HT4; Log[Drug] -9.52)?
Its value is 62.0248 and 69.3453 and 57.8541 and 56.9479 and 71.0625 and 61.8156 and 76.4214 and 67.9653 and 74.0649.

And the “β-arrestin2 recruitment response (dose-response source data, replicate values)” value (5HT4; Log[Drug] -9.52)?
The value was 0.3303 and 1.247 and 2.286 and 1.442 and 0.7292 and 1.103 and 0.01536 and 0.2716 and 0.5247.

And the “β-arrestin2 recruitment response in presence of serotonin (replicate values)” value (5HT4; Log[Drug] -10)?
Its value is 55.5618 and 63.9322 and 63.2088 and 69.7104 and 76.0792 and 67.2 and 78.0601 and 69.8546 and 82.4903.

And the “β-arrestin2 recruitment response (dose-response source data, replicate values)” value (5HT4; Log[Drug] -10)?
Its value is 0.4781 and 0.7712 and 1.0661 and 1.899 and 1.272 and 1.189 and -0.1148 and 0.1124 and 0.5271.

And the “β-arrestin2 recruitment response in presence of serotonin (replicate values)” value (5HT4; Log[Drug] -10.52)?
The value was 62.9859 and 78.1652 and 74.7819 and 66.7635 and 61.4146 and 52.4937 and 74.1336 and 65.8957 and 89.463.

What about the “β-arrestin2 recruitment response (dose-response source data, replicate values)” value (5HT4; Log[Drug] -10.52) of the same compound?
The value was 1.621 and 1.692 and 0.9661 and 0.6417 and 1.106 and 1.144 and 0.4066 and -0.08327 and 0.2078.

And the “β-arrestin2 recruitment response in presence of serotonin (replicate values)” value (5HT4; Log[Drug] -11)?
The value was 82.0434 and 83.1157 and 82.0887 and 77.05 and 73.7271 and 49.1812 and 80.7368 and 81.7578 and 70.7931.

And the “β-arrestin2 recruitment response (dose-response source data, replicate values)” value (5HT4; Log[Drug] -11)?
Its value is 0.3285 and 0.5731 and 1.621 and 1.898 and 1.603 and 0.8979 and -0.2789 and 0.3428 and 0.1099.

What about the “β-arrestin2 recruitment response in presence of serotonin (replicate values)” value (5HT4; Log[Drug] -11.52) of the same compound?
Its value is 82.4482 and 79.2239 and 74.7068 and 70.1292 and 64.8323 and 73.1583 and 68.2329 and 84.5356 and 79.3843.

And the “β-arrestin2 recruitment response (dose-response source data, replicate values)” value (5HT4; Log[Drug] -11.52)?
The value was 0.3061 and 0.7799 and 0.4241 and 1.31 and 1.564 and 0.9802 and 0.3743 and -0.1811 and 0.5651.

And the “β-arrestin2 recruitment response in presence of serotonin (replicate values)” value (5HT4; Log[Drug] -12)?
Its value is 88.7057 and 105.09 and 99.6448 and 69.9375 and 73.7219 and 66.8948 and 92.7613 and 90.5301 and 90.978.

What about the “β-arrestin2 recruitment response (dose-response source data, replicate values)” value (5HT4; Log[Drug] -12) of the same compound?
Its value is 1.557 and 0.8835 and 0.5619 and 0.6979 and 1.198 and 1.239 and 0.08246 and 0.08488 and 0.4382.

What about the “response, single replicates of the concentration-response curve” value (from here on “response, single replicates”) ([1]; Log[Drug] -6.52) of the same compound?
Its value is -7.994.

And the “response, single replicates” value ([1]; Log[Drug] -7)?
Its value is -2.807 and 4.395 and 8.664 and 27.4134 and 13.2513 and 15.6474 and 13.1242 and -2.417 and -10.8222.

And the “response, single replicates” value ([1]; Log[Drug] -7.52)?
The value was 4.715 and -8.828 and -5.606 and 8.395 and 8.216 and 0.5126 and 3.51 and 4.446 and -3.1317.

What about the “response, single replicates” value ([1]; Log[Drug] -8) of the same compound?
The value was 0.3826 and 12.2654 and 8.146 and 2.179 and 0.2337 and 9.5034 and -12.0593 and 26.3744 and -3.5174.

What about the “response, single replicates” value ([1]; Log[Drug] -8.52) of the same compound?
The value was -10.0653 and -1.2658 and 52.2148 and 23.8014 and -4.094 and -12.033 and 16.826 and 7.508 and 15.8147.

What about the “response, single replicates” value ([1]; Log[Drug] -9) of the same compound?
Its value is 1.557 and 9.933 and -1.226 and 2.422 and 13.6662 and 4.675 and -4.947 and 1.153 and 3.825.

What about the “response, single replicates” value ([1]; Log[Drug] -9.52) of the same compound?
The value was -5.148 and -10.9982 and -7.97 and 11.3845 and 16.9421 and 5.655 and -4.275 and -6.8476 and 18.2512.

What about the “response, single replicates” value ([1]; Log[Drug] -10) of the same compound?
Its value is 15.0958 and 7.486 and 10.8542 and 5.527 and 29.223 and 0.999 and -10.921 and 11.0828 and -0.8457.

What about the “response, single replicates” value ([1]; Log[Drug] -10.52) of the same compound?
Its value is -0.8745 and -6.646 and -1.622 and 20.5398 and 42.3766 and 10.7909 and -7.069 and -20.3001 and 10.2879.

And the “response, single replicates” value ([1]; Log[Drug] -11)?
Its value is -11.3698 and 19.5825 and 1.391 and 36.9549 and 6.363 and -10.581 and 12.6585 and -12.9389 and 3.331.

And the “response, single replicates” value ([1]; Log[Drug] -11.52)?
The value was -4.741 and 3.94 and 12.3959 and 19.2666 and -9.551 and -8.707 and 10.8288 and -0.4553 and -7.722.

And the “response, single replicates” value ([1]; Log[Drug] -12)?
Its value is -3.8669 and -1.214 and 2.909 and 15.2183 and 14.2098 and -8.421 and -4.75 and -12.1063 and 12.6538.

And the “β-arrestin2 recruitment agonist activity” value (DRD2 (D2 long receptor); DRD2, Tango)?
The value was “selective DRD2 agonist”.

What about the pEC50 (DRD2 (D2 long receptor); DRD2, β-arrestin2 recruitment (Tango), read-out: EC50 ± SEM) of the same compound?
The pEC50 was 5.98.

And the “response, concentration-response data point (replicates)” value (shortened to “response … (replicates)”) (DRD2 (D2 long receptor); Log[Drug] -5)?
Its value is 73.5777 and 57.7969 and 60.7943 and 65.7822 and 71.9755 and 71.4753 and 62.0106.

What about the “response … (replicates)” value (DRD2 (D2 long receptor); Log[Drug] -5.52) of the same compound?
Its value is 50.6787 and 47.7474 and 41.401 and 56.0167 and 52.8546 and 51.367 and 55.6817.

What about the “response … (replicates)” value (DRD2 (D2 long receptor); Log[Drug] -6) of the same compound?
Its value is 39.3966 and 41.1099 and 37.2084 and 41.7585 and 38.5021 and 38.079 and 42.2149.

What about the “response … (replicates)” value (DRD2 (D2 long receptor); Log[Drug] -6.52) of the same compound?
Its value is 17.548 and 17.9218 and 22.2395 and 30.2893 and 22.7451 and 19.4102 and 21.7916.

And the “response … (replicates)” value (DRD2 (D2 long receptor); Log[Drug] -7)?
The value was 9.564 and 7.739 and 7.708 and 7.415 and 7.649 and 7.113 and 9.501.
